Results published in patent publication US20240358671A1, “COMPOSITIONS AND METHODS TO TREAT SKIN DISORDERS” (THE TRUSTEES OF INDIANA UNIVERSITY, priority 2021, published 2024).
“Also recorded” adds a separate entry of the source.

Key:
PPARδ = PPARδ gene expression in S-1-P treated human keratinocytes; type: cell-based; settings: human keratinocytes treated with S-1-P, standard culture conditions
Protocol: Spingosine-1-phosphate methylates PPARδ promoter. Cutaneous ceramide is degraded to sphingosine by bacterial ceramidase. Sphingosine is phosphorylated to sphingosine-1 phosphate (S-1-P) which is a bioactive lipid and can epigenetically downregulate gene regulation. Thus, a plausible role of S-1-P in regulating PPARδ in our experimental systems was tested. In the porcine pre-clinical model of wound biofilm infection elevated levels of S-1-P was detected following PAwt, but not PAΔCer, infection. […] Under standard culture conditions when human keratinocytes were treated with the bioactive sphingolipid S-1-P, gene expression of PPARδ was blunted. To determine whether such downregulation of PPARδ was epigenetically regulated, CpG methylation of the PPARδ promoter was studied.

PPARδ promoter = assay: Bisulfite sequencing of PPARδ promoter (CpG methylation); type: cell-based, human; settings: HaCaT keratinocytes; S-1-P 5 μM, 48 hours
Protocol: The PCR products were gel extracted (GenElute Gel Extraction Kit, Sigma, cat #NA1111-1KT) and Sanger sequencing was done using ABI 3730 Genetic Analyzer. Analysis was done using Sequencher 5.4.5 (Gene Codes Corporation, MI). Results were confirmed by cloning the purified DNA into pGEM-T Easy Vector System II (Promega, cat #A1380), followed by sequencing.
Bisulfite conversion of DNA from HaCaT keratinocytes were transfected with Sphingosine-1-phosphate (5 μM, 48 hours) was performed using the Cells-to-CpG Bisulfite Conversion Kit (Thermo Fisher Scientific, part number: 4445555), as per manufacturer's protocol. The cells were lysed, and DNA was denatured using the denaturation reagent in a PCR tube at 50° C. for 10 min. Unmethylated cytosines were converted to uracil in the denatured DNA samples via treatment with conversion buffer containing bisulfite in a PCR reaction under following conditions: (1) 65° C. for 30 min, (2) 95° C. for 1.5 min, (3) 65° C. for 30 min, (4) 95° C. for 1.5 min, (5) 65° C. for 30 min, and (6) 4° C. up to 4 hr. This was followed by the removal of salts and desulfonation of the converted DNA in a binding column, a series of washing steps, and then elution of DNA. The converted DNA was stored at […] until further used.

DNMT3B = DNMT3B activity assay; type: cell-based; settings: human keratinocytes; 5 μmol S-1-P, 48 h
Protocol: Human keratinocytes cells were treated with 5 μmol of Sphingosine-1-phosphate (Avanti) for 48 h. Cells were collected and DNMT3B activity was measured using EpiQuik DNMT3B Activity/Inhibitor Screening Assay Core Kit (EPIGENTEK) according to manufacturer's instructions and using recombinant DNMT3B protein, (ACTIVE MOTIF) as a positive control for the assay.

DNA methyl transferases = assay: DNA methyl transferase expression in S-1-P treated HK; type: cell-based, human
Text: (§1) FIGS. 11A-11O illustrate additional experimental results. FIG. 11A: Vector map of PPARδ promoter luciferase reporter. FIGS. 11B-11C: PPARδ drives CerS3 expression. CerS3 expression in human keratinocytes (HK) treated with PPARδ agonist (GW501516, 1 μmol/ml) or antagonist (GSK0660, 1 μmol/ml) as measured by qPCR. Data presented as mean±SEM (n=5). FIGS. 11D-11F: Upregulation of DNA methyl transferases in S-1-P treated HK. Data presented as mean±SEM (n=8). FIGS. 11G-11J: Induction of histone deacetylases in S-1P treated HK. Data presented as mean±SEM (n=8). FIGS. 11K-11N) Other histone deacetylases in S-1P treated HK. […] Data presented as mean±SEM, (n=8). FIG. 11O: miR-106b expression in HK treated with S-1-P (5 μmol/ml). Data presented as mean±SEM (n=8).

histone deacetylases = assay: Histone deacetylase expression in S-1-P treated HK; type: cell-based, human
Text: as §1

miR-106b = miR-106b expression in HK treated with S-1-P; type: cell-based, human; settings: HK treated with S-1-P 5 μmol/ml
Text: as §1

CCCCCCCCCCCCC/C=C/[C@@H](O)[C@@H](N)COP(=O)(O)O [S-1-P, sphingosine-1 phosphate]
gene expression of PPARδ (PPARδ): blunted; also recorded: epigenetically silenced
PPARδ promoter methylation (PPARδ promoter): caused promoter methylation
catalytic activity of DNA methyl transferase 3B (DNMT3B) (DNMT3B): augmented catalytic activity
DNA methyl transferases expression (FIGS. 11D-11F) (DNA methyl transferases): Upregulation
histone deacetylases expression (FIGS. 11G-11J) (histone deacetylases): Induction
other histone deacetylases expression (FIGS. 11K-11N) (histone deacetylases): No significant changes
miR-106b expression (miR-106b): Induction
